Laboratory results: patent US20220089589A1, “SMALL MOLECULE DEGRADERS OF FKBP12 VIA RECRUITMENT OF VON HIPPEL-LINDAU E3 UBIQUITIN LIGASE (VHL) E3 UBIQUITIN LIGASE, AND USES IN dTAG SYSTEMS” (DANA-FARBER CANCER INSTITUTE, INC., priority 2019, published 2022)
“Also recorded” adds a separate entry of the source.

Experiments:
Format in all cases: cell-based
control NIH/3T3 cells = test: Anti-proliferation in mock transduced (control) NIH/3T3 cells by ATPlite assay; conditions: 0.00063-20 μM, 72 hrs, at high doses
Protocol: (§1) NIH/3T3 cells, that were mock transduced (control) or stably expressing with FKBP12^F36V-KRAS^G12V, were plated in 384-well format, allowed to adhere overnight, and treated with various dTAG molecules from compound stock plates using a JANUS® Workstation pin tool for 72 hrs. To measure cell viability, ATPlite™ was added to wells for 15 minutes at room temperature and luminescence was measured on an EnVision™ 2104 Multilabel Plate Reader.

[1] = test system: NIH/3T3 cells expressing FKBP12^F36V-KRAS^G12V; test: Anti-proliferation in NIH/3T3 cells expressing FKBP12^F36V-KRAS^G12V by ATPlite assay; conditions: 0.00063-20 μM, 72 hrs, NIH/3T3 expressing FKBP12^F36V-KRAS^G12V
Protocol: as §1

[2] = test system: PATU-8902 LACZ-FKBP12^F36V clone; test: Cell transformation by growth in ultra-low attachment conditions, PATU-8902 LACZ-FKBP12^F36V control clone (Example 13); conditions: 0.000063-2 μM, 120 hrs
Protocol: (§2) PATU-8902 LACZ-FKBP12^F36V or FKBP12^F36V-KRAS^G12V; KRAS^−/− clones were plated in 384-well format in ultra-low attachment conditions, allowed to form 3D-spheroids overnight, and treated with various dTAG molecules from compound stock plates using a JANUS® Workstation pin tool for 120 hrs. To measure cell transformation, Cell Tilter-Glo® was added to wells for 15 minutes at room temperature and luminescence was measured on an EnVision™ 2104 Multilabel Plate Reader.

[3] = test system: PATU-8902 FKBP12^F36V-KRAS^G12V; KRAS^−/− clone; test: Anti-proliferation via CellTiter-Glo, PATU-8902 FKBP12^F36V-KRAS^G12V; KRAS^−/− clone (Example 11); conditions: 0.00063-20 μM, 72 hrs
Protocol: as §2, with “format,” for “format in ultra-low attachment conditions,”, “adhere” for “form 3D-spheroids”, “72” for “120”, “viability, CellTilter-Glo®” for “transformation, Cell Tilter-Glo®”, “r.t.” for “room temperature”

FKBP12^F36V-EWS/FLI = test: Immunoblotting of EWS502 FKBP12^F36V-EWS/FLI; EWS/FLI^−/− cells; conditions: dTAG-13 10-5000 nM, compound 1 50-5000 nM, 24 hrs, EWS502 cells
Protocol: (§3) EWS502 FKBP12^F36V-GFP and FKBP12^F36V-EWS/FLI; EWS/FLP^−/− cells were plated in 6-well format, allowed to adhere overnight, and treated with (10-5000 nM) dTAG-13 or (50-5000 nM) compound 1 for 24 hrs. Following treatment, cells were lysed in Cell Lysis Buffer (Cell Signaling Technology®) on ice for 60 minutes. Lysates were clarified by centrifugation at 20,000×g for 10 minutes at 4° C. Immunoblotting was performed to determine changes in protein levels upon incubation with the appropriate horseradish peroxidase-conjugated secondary antibodies. The indicated antibodies were employed including HA to monitor FKBP12^F36V-GFP or FKBP12^F36V-EWS/FLI degradation and Vinculin as a loading control.

[4] = test system: PATU-8902 LACZ-FKBP12^F36V clone; test: Anti-proliferation via CellTiter-Glo, PATU-8902 LACZ-FKBP12^F36V control clone (Example 11); conditions: 0.00063-20 μM, 72 hrs
Protocol: as §2, with “format,” for “format in ultra-low attachment conditions,”, “adhere” for “form 3D-spheroids”, “72” for “120”, “viability, CellTilter-Glo®” for “transformation, Cell Tilter-Glo®”, “r.t.” for “room temperature”

pAKT = test: Immunoblotting of PATU-8902 FKBP12^F36V-KRAS^G12V; KRAS^−/− clone (Example 8), AKT signaling; conditions: 50 or 500 nM, 4 hrs
Protocol: (§4) PATU-8902 FKBP12^F36V-KRAS^G12V; KRAS^−/− clone was plated in 6-well format, allowed to adhere overnight, and treated with 50 nM and 500 nM dTAG molecules for 4 hrs. Following treatment, cells were lysed in RIPA buffer on ice for 60 minutes. Lysates were clarified by centrifugation at 20,000×g for 10 minutes at 4° C. Immunoblotting was performed to determine changes in protein levels with an Odyssey CLx Imager. The indicated antibodies were employed including HA to monitor FKBP12^F36V-KRAS^G12V degradation, total and phosphorylated ERK to evaluate changes in ERK signaling, total and phosphorylated AKT to evaluate changes in AKT signaling and α-TUBULIN as a loading control.

[5] = test system: PATU-8902 LACZ-FKBP12^F36V clone; test: Anti-proliferation via CellTiter-Glo, PATU-8902 LACZ-FKBP12^F36V control clone (Example 12); conditions: 0.000063-2 μM, 72 hrs
Protocol: as §2, with “format,” for “format in ultra-low attachment conditions,”, “adhere” for “form 3D-spheroids”, “72” for “120”, “viability,” for “transformation,”, “r.t.” for “room temperature”

[6] = test system: PATU-8902 FKBP12^F36V-KRAS^G12V; KRAS^−/− clone; test: Cell transformation by growth in ultra-low attachment conditions, PATU-8902 FKBP12^F36V-KRAS^G12V; KRAS^−/− clone (Example 13); conditions: 0.000063-2 μM, 120 hrs
Protocol: as §2

FKBP12^F36V-KRAS^G12V [7] = test: Immunoblotting of 293T^VHL−/− FKBP12^F36V-KRAS^G12V cells; conditions: 50 or 500 nM, 24 hrs
Protocol: (§5) 293T^WT or 293T^VHL−/− FKBP12^F36V-KRAS^G12V cells were plated in 6-well format, allowed to adhere overnight, and treated with 50 nM and 500 nM dTAG molecules for 24 hrs. Following treatment, cells were lysed in RIPA buffer on ice for 60 minutes. Lysates were clarified by centrifugation at 20,000×g for 10 minutes at 4° C. Immunoblotting was performed to determine changes in protein levels with an Odyssey CLx Imager. The indicated antibodies were employed including HA to monitor FKBP12^F36V-KRAS^G12V degradation and α-TUBULIN as a loading control.

FKBP12^F36V-KRAS^G12V [8] = test: Immunoblotting of 293T^WT FKBP12^F36V-KRAS^G12V cells; conditions: 50 or 500 nM, 24 hrs
Protocol: as §5

[9] = test system: PATU-8902 FKBP12^F36V-KRAS^G12V; KRAS^−/− clone; test: Anti-proliferation via CellTiter-Glo, PATU-8902 FKBP12^F36V-KRAS^G12V; KRAS^−/− clone (Example 12); conditions: 0.000063-2 μM, 72 hrs
Protocol: as §2, with “format,” for “format in ultra-low attachment conditions,”, “adhere” for “form 3D-spheroids”, “72” for “120”, “viability,” for “transformation,”, “r.t.” for “room temperature”

FKBP12^F36V-GFP = test: Immunoblotting of EWS502 FKBP12^F36V-GFP cells; conditions: dTAG-13 10-5000 nM, compound 1 50-5000 nM, 24 hrs
Protocol: as §3

pERK = test: Immunoblotting of PATU-8902 FKBP12^F36V-KRAS^G12V; KRAS^−/− clone (Example 8), ERK signaling; conditions: 50 or 500 nM, 4 hrs
Protocol: as §4

LACZ-FKBP12^F36V = test: Immunoblotting of PATU-8902 LACZ-FKBP12^F36V clone (Example 6); conditions: 50 or 500 nM, 4 hrs
Protocol: as §5, with “PATU-8902 LACZ-FKBP12^F36V clone was” for “293T^WT or 293T^VHL−/− FKBP12^F36V-KRAS^G12V cells were”, “4” for “24”, “HA (hemagglutinin)” for “HA”, “LACZ-FKBP12^F36V” for “FKBP12^F36V-KRAS^G12V”

FKBP12^F36V-KRAS^G12V [10] = test: Immunoblotting of PATU-8902 FKBP12^F36V-KRAS^G12V; KRAS^−/− clone (Example 8), HA; conditions: 50 or 500 nM, 4 hrs
Protocol: as §4

Row | SMILES | anti-proliferative effects on control cells (control NIH/3T3 cells) | anti-proliferative effects / loss of cell viability (% DMSO control) [1] | effects on cell transformation of LACZ-FKBP12^F36V control clone [2] | anti-proliferative effects / loss of cell viability (% DMSO control) [3] | degradation of FKBP12^F36V-EWS/FLI (immunoblot) (FKBP12^F36V-EWS/FLI) | anti-proliferative effects on LACZ-FKBP12^F36V control clone [4] | pAKT levels (immunoblot) (pAKT) | anti-proliferative effects on LACZ-FKBP12^F36V control clone [5] | loss of cell transformation (3D-spheroids, % DMSO control) [6] | degradation of FKBP12^F36V-KRAS^G12V in 293T^VHL−/− cells (immunoblot) (FKBP12^F36V-KRAS^G12V [7]) | degradation of FKBP12^F36V-KRAS^G12V in 293T^WT cells (immunoblot) (FKBP12^F36V-KRAS^G12V [8]) | anti-proliferative effects / loss of cell viability (% DMSO control) [9] | degradation of FKBP12^F36V-GFP (immunoblot) (FKBP12^F36V-GFP) | pERK levels (immunoblot) (pERK) | degradation of LACZ-FKBP12^F36V (immunoblot) (LACZ-FKBP12^F36V) | degradation of FKBP12^F36V-KRAS^G12V (immunoblot) (FKBP12^F36V-KRAS^G12V [10])
1 | CC[C@H](C(=O)N1CCCC[C@H]1C(=O)O[C@H](CCc1ccc(OC)c(OC)c1)c1ccccc1OCC(=O)NCCOCCOCCOCC(=O)N[C@H](C(=O)N1C[C@H](O)C[C@H]1C(=O)NCc1ccc(-c2scnc2C)cc1)C(C)(C)C)c1cc(OC)c(OC)c(OC)c1 [dTAG-12] | Limited anti-proliferative effects | Effective loss of viability; also recorded: potent anti-proliferative effects |  |  |  |  |  |  |  |  |  |  |  |  |  | 
2 | CC[C@H](C(=O)N1CCCC[C@H]1C(=O)O[C@H](CCc1ccc(OC)c(OC)c1)c1ccccc1OCC(=O)NCCCCCCOc1cccc2c1C(=O)N(C1CCC(=O)NC1=O)C2=O)c1cc(OC)c(OC)c(OC)c1 (stereo partly drawn) [dTAG-13, reference compound] |  | Effective loss of viability; also recorded: potent anti-proliferative effects | limited effects | Effective loss of viability; also recorded: potent anti-proliferative effects | not | limited effects | pronounced diminished levels | limited effects | Effective loss of viability; also recorded: potent loss of cell transformation | Degradation of mutant KRAS was observed; also recorded: potent degradation | potent degradation | Effective loss of viability; also recorded: potent anti-proliferative effects | Degradation of GFP (control) is observed; also recorded: potent degradation | pronounced diminished levels | rapid degradation; also recorded: potent degradation | potent degradation
3 | CC[C@H](C(=O)N1CCCC[C@H]1C(=O)O[C@H](CCc1ccc(OC)c(OC)c1)c1ccccc1OCC(=O)NCCCCCCOc1cccc2c1C(=O)N(C1CCC(=O)N(C)C1=O)C2=O)c1cc(OC)c(OC)c(OC)c1 (stereo partly drawn) [Compound 5] |  |  |  |  |  |  | no effect |  | little to no loss of viability; also recorded: limited toxicity at high doses |  |  | little to no loss of viability; also recorded: little to no toxicity |  | no effect | Lack of degradation; also recorded: no effect | Lack of degradation; also recorded: no effect
4 | CC[C@H](C(=O)N1CCCC[C@H]1C(=O)O[C@H](CCc1ccc(OC)c(OC)c1)c1ccccc1OCC(=O)NCCOCCOCCOCC(=O)N[C@H](C(=O)N1C[C@H](O)C[C@H]1C(=O)N[C@@H](C)c1ccc(-c2scnc2C)cc1)C(C)(C)C)c1cc(OC)c(OC)c(OC)c1 [dTAG-63] | Limited anti-proliferative effects | Effective loss of viability; also recorded: potent anti-proliferative effects |  | Effective loss of viability; also recorded: potent anti-proliferative effects |  | limited effects |  |  |  |  |  |  |  |  |  | 
5 | CC[C@H](C(=O)N1CCCC[C@H]1C(=O)O[C@H](CCc1ccc(OC)c(OC)c1)c1ccccc1OCC(=O)NCCCCCCC(=O)N[C@H](C(=O)N1C[C@@H](O)C[C@@H]1C(=O)N[C@@H](C)c1ccc(-c2scnc2C)cc1)C(C)(C)C)c1cc(OC)c(OC)c(OC)c1 [Compound 2, (R)-3-(3,4-dimethoxyphenyl)-1-(2-(2-((7-(((S)-1-((2R,4S)-4-hydroxy-2-(((S)-1-(4-(4-methylthiazol-5-yl)phenyl)ethyl)carbamoyl)pyrrolidin-1-yl)-3,3-dimethyl-1-oxobutan-2-yl)amino)-7-oxoheptyl)amino)-2-oxoethoxy)phenyl)propyl (S)-1-((S)-2-(3,4,5-trimethoxyphenyl)butanoyl)piperidine-2-carboxylate] |  |  |  |  |  |  | no effect |  | little to no loss of viability; also recorded: limited toxicity at high doses |  |  | little to no loss of viability; also recorded: little to no toxicity |  | no effect | Lack of degradation; also recorded: no effect | Lack of degradation; also recorded: no effect
